According to ChEMBL document CHEMBL1147975, “Synthesis, structure, and structure-activity relationship analysis of enamines as potential antibacterials” (2007):
In brackets after ≈: the same amount, converted by molar mass.

Assays:
Type in all cases: functional
[1] = system: Bacillus subtilis; experiment: Antibacterial activity against Bacillus subtilis ATCC 6633 after 24 hrs by MTT method; conditions: ATCC 6633, 24 h
[2] = system: Escherichia coli; experiment: Antibacterial activity against Escherichia coli ATCC 35218 after 24 hrs by MTT method; conditions: ATCC 35218, 24 h
[3] = system: Pseudomonas fluorescens; experiment: Antibacterial activity against Pseudomonas fluorescens ATCC 13525 after 24 hrs by MTT method; conditions: ATCC 13525, 24 h
[4] = system: Staphylococcus aureus; experiment: Antibacterial activity against Staphylococcus aureus ATCC 6538 after 24 hrs by MTT method; conditions: ATCC 6538, 24 h
[5] = system: Aspergillus niger; experiment: Antifungal activity against Aspergillus niger ATCC 16404 after 48 hrs by MTT method; conditions: ATCC 16404, 48 h
[6] = system: Candida albicans; experiment: Antifungal activity against Candida albicans ATCC 10231 after 48 hrs by MTT method; conditions: ATCC 10231, 48 h
[7] = system: Trichophyton rubrum; experiment: Antifungal activity against Trichophyton rubrum ATCC 10218 after 48 hrs by MTT method; conditions: ATCC 10218, 48 h

Row | SMILES | MIC [1] | MIC [2] | MIC [3] | MIC [4] | MIC [5] | MIC [6] | MIC [7]
1 | CCOC(=O)/C(=C/Nc1cc(F)cc(F)c1)c1ccc(OC)cc1 | > 50 µg/mL | > 50 µg/mL | 31.5 µg/mL (≈ 94.5 µM) | 22.8 µg/mL (≈ 68.4 µM) | > 50 µg/mL | > 50 µg/mL | 
2 | CCOC(=O)/C(=C\Nc1ccc(O)cc1)c1ccc(OC)cc1 | > 50 µg/mL | > 50 µg/mL | > 50 µg/mL | 7.9 µg/mL (≈ 25.2 µM) | > 50 µg/mL | > 50 µg/mL | 
3 | CCOC(=O)/C(=C\Nc1ccc(Cl)cc1)c1ccc(Cl)cc1 | > 50 µg/mL | > 50 µg/mL | 32.2 µg/mL (≈ 95.8 µM) | > 50 µg/mL | > 50 µg/mL | > 50 µg/mL | 
4 | CCOC(=O)/C(=C\Nc1ccc(C)cc1)c1ccc(Cl)cc1 | > 50 µg/mL | > 50 µg/mL | > 50 µg/mL | > 50 µg/mL | > 50 µg/mL | > 50 µg/mL | 
5 | CCOC(=O)/C(=C/Nc1cc(Br)c(OC)c(Br)c1)c1ccc(OC)cc1 | > 50 µg/mL | > 50 µg/mL | 33 µg/mL (≈ 68 µM) | > 50 µg/mL | > 50 µg/mL | > 50 µg/mL | 
6 | CCOC(=O)/C(=C\Nc1cc(OC)cc(OC)c1)c1ccc(OC)cc1 | > 50 µg/mL | > 50 µg/mL | 30 µg/mL (≈ 83.9 µM) | 43.5 µg/mL (≈ 122 µM) | > 50 µg/mL | > 50 µg/mL | 
7 | CCOC(=O)/C(=C/Nc1cc(OC)cc(OC)c1)c1ccc(OC)cc1 | > 50 µg/mL | 41.5 µg/mL (≈ 116 µM) | 25.2 µg/mL (≈ 70.5 µM) | 15.8 µg/mL (≈ 44.2 µM) | > 50 µg/mL | > 50 µg/mL | 
8 | CCOC(=O)/C(=C/Nc1ccc(C)cc1)c1ccc(Cl)cc1 | > 50 µg/mL | > 50 µg/mL | > 50 µg/mL | 0.9 µg/mL (≈ 2.85 µM) |  | > 50 µg/mL | 
9 | CCOC(=O)/C(=C/Nc1cc(Cl)cc(Cl)c1)c1ccc(OC)cc1 | 42.2 µg/mL (≈ 115 µM) | 42.2 µg/mL (≈ 115 µM) | 27.8 µg/mL (≈ 75.9 µM) | 20.2 µg/mL (≈ 55.2 µM) | > 50 µg/mL | > 50 µg/mL | 
10 | CCOC(=O)/C(=C\Nc1cc(Br)c(OC)c(Br)c1)c1ccc(OC)cc1 | > 50 µg/mL | > 50 µg/mL | > 50 µg/mL | > 50 µg/mL | > 50 µg/mL | > 50 µg/mL | > 50 µg/mL
11 | CCOC(=O)/C(=C\Nc1cc(Cl)cc(Cl)c1)c1ccc(Cl)cc1 | > 50 µg/mL | > 50 µg/mL | > 50 µg/mL | > 50 µg/mL | > 50 µg/mL | > 50 µg/mL | 
12 | CCOC(=O)/C(=C/Nc1cc(Cl)cc(Cl)c1)c1ccc(Cl)cc1 | > 50 µg/mL | > 50 µg/mL | 25.7 µg/mL (≈ 69.3 µM) | 1.1 µg/mL (≈ 2.97 µM) | > 50 µg/mL | > 50 µg/mL | 
13 | CCOC(=O)/C(=C\Nc1ccccc1Cl)c1ccc(Cl)cc1 | > 50 µg/mL | 42.5 µg/mL (≈ 126 µM) | > 50 µg/mL | > 50 µg/mL | > 50 µg/mL | > 50 µg/mL | 
14 | CCOC(=O)/C(=C/Nc1ccc(O)cc1)c1ccc(OC)cc1 | > 50 µg/mL | > 50 µg/mL | > 50 µg/mL | 3.8 µg/mL (≈ 12.1 µM) | > 50 µg/mL | > 50 µg/mL | 
15 | CCOC(=O)/C(=C/Nc1ccccc1Cl)c1ccc(Cl)cc1 | 43.8 µg/mL (≈ 130 µM) | 38.8 µg/mL (≈ 115 µM) | 35.3 µg/mL (≈ 105 µM) | > 50 µg/mL | > 50 µg/mL | > 50 µg/mL | 
16 | CCOC(=O)/C(=C\Nc1cc(F)cc(F)c1)c1ccc(Cl)cc1 | > 50 µg/mL | > 50 µg/mL | > 50 µg/mL | > 50 µg/mL | > 50 µg/mL | > 50 µg/mL | 
17 | CCOC(=O)/C(=C/Nc1cc(F)cc(F)c1)c1ccc(Cl)cc1 | 48.2 µg/mL (≈ 143 µM) | > 13.5 µg/mL | 31.5 µg/mL (≈ 93.3 µM) | 1.9 µg/mL (≈ 5.63 µM) | > 50 µg/mL | > 50 µg/mL | 
18 | CCOC(=O)/C(=C/Nc1ccc(Br)cc1)c1ccc(Cl)cc1 | > 50 µg/mL | > 50 µg/mL | > 50 µg/mL | > 50 µg/mL | > 50 µg/mL | > 50 µg/mL | 
19 | CCOC(=O)/C(=C\Nc1cc(Cl)cc(Cl)c1)c1ccc(OC)cc1 | > 50 µg/mL | > 50 µg/mL | 33.8 µg/mL (≈ 92.3 µM) | > 50 µg/mL | > 50 µg/mL | > 50 µg/mL | 
20 | CCOC(=O)/C(=C\Nc1ccc(Br)cc1)c1ccc(Cl)cc1 | > 50 µg/mL | > 50 µg/mL | > 50 µg/mL | > 50 µg/mL | > 50 µg/mL | > 50 µg/mL | 
21 | CCOC(=O)/C(=C/Nc1ccc(Br)cc1)c1ccc(OC)cc1 | > 50 µg/mL | > 50 µg/mL | 31.7 µg/mL (≈ 84.3 µM) | > 50 µg/mL | > 50 µg/mL | > 50 µg/mL | 
22 | CCOC(=O)/C(=C\Nc1ccc(Br)cc1)c1ccc(OC)cc1 | > 50 µg/mL | > 50 µg/mL | > 50 µg/mL | > 50 µg/mL | > 50 µg/mL | > 50 µg/mL | 
23 | CCOC(=O)/C(=C/Nc1ccc(Cl)cc1)c1ccc(Cl)cc1 | 42 µg/mL (≈ 125 µM) | 42.5 µg/mL (≈ 126 µM) | 29.5 µg/mL (≈ 87.7 µM) | > 50 µg/mL | > 50 µg/mL | > 50 µg/mL | 
24 | CCOC(=O)/C(=C\Nc1cc(F)cc(F)c1)c1ccc(OC)cc1 | > 50 µg/mL | > 50 µg/mL | > 50 µg/mL | > 50 µg/mL | > 50 µg/mL | > 50 µg/mL | 
25 | NC[C@H]1O[C@H](O[C@H]2[C@H](O)[C@@H](O[C@H]3O[C@H](CO)[C@@H](O)[C@H](N)[C@H]3O)[C@H](N)C[C@@H]2N)[C@H](O)[C@@H](O)[C@@H]1O [KANAMYCIN] | 0.39 µg/mL (≈ 0.805 µM) | 3.9 µg/mL (≈ 8.05 µM) | 3.9 µg/mL (≈ 8.05 µM) | 1 µg/mL (≈ 2.06 µM) |  |  | 
